From patent US20170304388A1, “NEW INDICATION OF CARDIOVASCULAR DRUGS FOR PREPARATION OF CANCER INHIBITION PHARMACEUTICAL COMPOSITION” (LAUNX BIOMEDICAL CO., LTD., priority 2014, published 2017)
Structures can show the parent of a compound that is named as a salt. Where two headings read alike, the source gives them in different places.

How the values were obtained:
Format in all cases: cell-based
[1] = test system: A375 (Amelanotic Melanoma); assay: Cell viability analysis (WST-1), A375; settings: Homo sapiens, WST-1, OD450 nm, lower viability = better inhibition, read-out: survival rate (viability) of cancer cells, A375
[2] = test system: HCT116 (Colorectal Carcinoma); assay: Cell viability analysis (WST-1), HCT116; settings: Homo sapiens, HCT-116, 72 h, Table 3, drug 10 μM, WST-1, OD450 nm, read-out: survival rate (viability) of cancer cells, HCT116 (WT)
[3] = test system: HepG2 (Hepatocellular Carcinoma); assay: Cell viability analysis (WST-1), HepG2; settings: Homo sapiens, WST-1, OD450 nm, read-out: survival rate (viability) of cancer cells, HepG2
[4] = test system: HeLa (Cervix Adenocarcinoma); assay: Cell viability analysis (WST-1), HeLa; settings: Homo sapiens, HeLa, WST-1, OD450 nm, read-out: survival rate (viability) of cancer cells, HeLa
[5] = test system: AGS (Gastric Adenocarcinoma); assay: Cell viability analysis (WST-1), AGS; settings: WST-1, OD450 nm, read-out: survival rate (viability) of cancer cells, AGS
[6] = test system: H1650 (Lung Adenocarcinoma); assay: Cell viability analysis (WST-1), H1650; settings: Homo sapiens, WST-1, OD450 nm, read-out: survival rate (viability) of cancer cells, H1650
[7] = test system: MKN-45 (Gastric Adenocarcinoma); assay: Cell viability analysis (WST-1), MKN-45; settings: Homo sapiens, WST-1, OD450 nm, read-out: survival rate (viability) of cancer cells, MKN-45
[8] = test system: TSGH-8301 (Urinary Bladder Carcinoma); assay: Cell viability analysis (WST-1), TSGH-8301; settings: WST-1, OD450 nm, read-out: survival rate (viability) of cancer cells, TSGH
[9] = test system: A549 (Lung Adenocarcinoma); assay: Cell viability analysis (WST-1), A549; settings: Homo sapiens, WST-1, OD450 nm, read-out: survival rate (viability) of cancer cells, A549
[10] = test system: MCF7 (Mammary Gland, Adenocarcinoma); assay: Cell viability analysis (WST-1), MCF7; settings: Homo sapiens, WST-1, OD450 nm, read-out: survival rate (viability) of cancer cells, MCF7
[11] = test system: PC3 (Prostate Adenocarcinoma); assay: Cell viability analysis (WST-1), PC3; settings: WST-1, OD450 nm, read-out: survival rate (viability) of cancer cells, PC3
[12] = test system: LoVo (Colorectal Adenocarcinoma); assay: Cell viability analysis (WST-1), LoVo; settings: Homo sapiens, LoVo, WST-1, OD450 nm, read-out: survival rate (viability) of cancer cells, LoVo
[13] = test system: HL-60 (Acute Promyelocytic Leukemia); assay: Cell viability analysis (WST-1), HL-60; settings: Homo sapiens, HL-60; Table 3; drug 10 μM, 72 hours, WST-1, OD450 nm; read-out: survival rate (viability) of cancer cells, HL-60
cancer cell lines = assay: Growth inhibitory effects on the panel of cancer cell lines; settings: drug 10 μM, 72 hours; for Numbers of inhibitory effect on cancer cell line: count of cancer cell lines inhibited; for inhibition effect on different cancer cell lines (in words): WST-1
Description: Subculture the different types of cancer cells.
For cell viability analysis, the cardiovascular drugs include peripheral vasodilator reaming enhancer, angiotensin converting agent inhibitor, hypotension and shock therapeutic agent, diuretic, antiarrhythmic agent, antiarralciton drug, antihypertensive agent, anticoagulant thrombolytic agent, cardiac tonic, intravenous (hemorrhoids) therapeutic agent, are used to test the inhibition effect of cancer cell.

[14] = A-375, 72 h, Table 3, drug 10 μM
[15] = HepG2, 72 h, Table 3, drug 10 μM
[16] = NCI-H1650, 72 h, Table 3, drug 10 μM
[17] = MKN-45, 72 h, Table 3, drug 10 μM
[18] = A549, 72 h, Table 3, drug 10 μM
[19] = MCF7, 72 h, Table 3, drug 10 μM

`Cc1cnc(C(=O)O)c[n+]1[O-]` [Acipimox] was tested. Which viability at 10 µM [1, 14] did it give?
Its viability at 10 µM is 124%.

What about the viability at 10 µM [2] of the same compound?
The viability at 10 µM was 79.4%.

What about the viability at 10 µM [3, 15] of the same compound?
The viability at 10 µM was 99.8%.

And the viability at 10 µM ([4]; 72 h, Table 3, drug 10 μM)?
Its viability at 10 µM is 87.6%.

And the viability at 10 µM ([5]; 72 h, Table 3, drug 10 μM)?
Its viability at 10 µM is 87.5%.

What about the viability at 10 µM [6, 16] of the same compound?
Its viability at 10 µM is 89.6%.

And the viability at 10 µM [7, 17]?
Its viability at 10 µM is 80.2%.

And the viability at 10 µM ([8]; 72 h, Table 3, drug 10 μM)?
The viability at 10 µM was 99.8%.

And the viability at 10 µM [9, 18]?
Its viability at 10 µM is 108%.

What about the viability at 10 µM [10, 19] of the same compound?
Its viability at 10 µM is 75.8%.

And the viability at 10 µM ([11]; 72 h, Table 3, drug 10 μM)?
The viability at 10 µM was 94.5%.

And the viability at 10 µM ([12]; 72 h, Table 3, drug 10 μM)?
Its viability at 10 µM is 77.4%.

What about the viability at 10 µM [13] of the same compound?
The viability at 10 µM was 102%.

And the “Numbers of inhibitory effect on cancer cell line” value (shortened to “Numbers of inhibitory effect”) (cancer cell lines)?
Its value is 0.

And the “inhibition effect on different cancer cell lines (in words)” value (cancer cell lines)?
Its value is “significant inhibition effect”.

`CCN(CC)CCOC(=O)C(c1ccccc1)c1ccccc1` [Adiphenine HCl] was tested. Which viability at 10 µM [1, 14] did it give?
The viability at 10 µM was 87.6%.

What about the viability at 10 µM [2] of the same compound?
The viability at 10 µM was 134%.

What about the viability at 10 µM [3, 15] of the same compound?
The viability at 10 µM was 95.5%.

What about the viability at 10 µM ([4]; 72 h, Table 3, drug 10 μM) of the same compound?
The viability at 10 µM was 96.4%.

What about the viability at 10 µM ([5]; 72 h, Table 3, drug 10 μM) of the same compound?
Its viability at 10 µM is 109%.

And the viability at 10 µM [6, 16]?
The viability at 10 µM was 119%.

What about the viability at 10 µM [7, 17] of the same compound?
The viability at 10 µM was 95.7%.

What about the viability at 10 µM ([8]; 72 h, Table 3, drug 10 μM) of the same compound?
The viability at 10 µM was 82%.

And the viability at 10 µM [9, 18]?
The viability at 10 µM was 86.8%.

And the viability at 10 µM [10, 19]?
Its viability at 10 µM is 103%.

What about the viability at 10 µM ([11]; 72 h, Table 3, drug 10 μM) of the same compound?
The viability at 10 µM was 102%.

And the viability at 10 µM ([12]; 72 h, Table 3, drug 10 μM)?
The viability at 10 µM was 95.7%.

What about the viability at 10 µM [13] of the same compound?
The viability at 10 µM was 105%.

And the “Numbers of inhibitory effect” value (cancer cell lines)?
Its value is 0.

And the “inhibition effect on different cancer cell lines (in words)” value (cancer cell lines)?
The value was “significant inhibition effect”.

Which results are given for `COCCCOc1cc(C[C@@H](C[C@H](N)[C@@H](O)C[C@H](C(=O)NCC(C)(C)C(N)=O)C(C)C)C(C)C)ccc1OC` [Aliskiren hemifumarate]?
viability at 10 µM [1, 14]: 91.2%; viability at 10 µM [2]: 97.2%; viability at 10 µM [3, 15]: 94.2%; viability at 10 µM ([4]; 72 h, Table 3, drug 10 μM): 108%; viability at 10 µM ([5]; 72 h, Table 3, drug 10 μM): 81.8%; viability at 10 µM [6, 16]: 79.8%; viability at 10 µM [7, 17]: 85.1%; viability at 10 µM ([8]; 72 h, Table 3, drug 10 μM): 73.3%; viability at 10 µM [9, 18]: 92%; viability at 10 µM [10, 19]: 99.1%; viability at 10 µM ([11]; 72 h, Table 3, drug 10 μM): 89%; viability at 10 µM ([12]; 72 h, Table 3, drug 10 μM): 99.5%; viability at 10 µM [13]: 98.5%; Numbers of inhibitory effect on cancer cell line (cancer cell lines): 0; inhibition effect on different cancer cell lines (in words) (cancer cell lines): significant inhibition effect

With `CCOC(=O)[C@H](CCc1ccccc1)N[C@H]1CCc2ccccc2N(CC(=O)O)C1=O` [Benazepril hydrochloride] as the compound, how does the viability at 10 µM [1, 14] read?
The viability at 10 µM was 104%.

What about the viability at 10 µM [2] of the same compound?
The viability at 10 µM was 60%.

What about the viability at 10 µM [3, 15] of the same compound?
Its viability at 10 µM is 93%.

And the viability at 10 µM ([4]; 72 h, Table 3, drug 10 μM)?
Its viability at 10 µM is 75.9%.

What about the viability at 10 µM ([5]; 72 h, Table 3, drug 10 μM) of the same compound?
Its viability at 10 µM is 76.7%.

What about the viability at 10 µM [6, 16] of the same compound?
The viability at 10 µM was 61.6%.

What about the viability at 10 µM [7, 17] of the same compound?
Its viability at 10 µM is 103%.

What about the viability at 10 µM ([8]; 72 h, Table 3, drug 10 μM) of the same compound?
The viability at 10 µM was 77.5%.

And the viability at 10 µM [9, 18]?
Its viability at 10 µM is 81.8%.

And the viability at 10 µM [10, 19]?
The viability at 10 µM was 126%.

And the viability at 10 µM ([11]; 72 h, Table 3, drug 10 μM)?
The viability at 10 µM was 80.7%.

And the viability at 10 µM ([12]; 72 h, Table 3, drug 10 μM)?
Its viability at 10 µM is 96%.

And the viability at 10 µM [13]?
Its viability at 10 µM is 93.6%.

And the “Numbers of inhibitory effect” value (cancer cell lines)?
Its value is 0.

And the “inhibition effect on different cancer cell lines (in words)” value (cancer cell lines)?
Its value is “significant inhibition effect”.

How did the viability at 10 µM [2] turn out when `Cc1[nH]c(=O)c(C#N)cc1-c1ccncc1` [Milrinone (Primacor), Milrinone] was run?
Its viability at 10 µM is 104%.

And the viability at 10 µM [3, 15]?
Its viability at 10 µM is 98.5%.

And the viability at 10 µM ([4]; 72 h, Table 3, drug 10 μM)?
The viability at 10 µM was 99%.

And the viability at 10 µM ([5]; 72 h, Table 3, drug 10 μM)?
The viability at 10 µM was 130%.

What about the viability at 10 µM [6, 16] of the same compound?
Its viability at 10 µM is 86.2%.

What about the viability at 10 µM [7, 17] of the same compound?
The viability at 10 µM was 92.9%.

And the viability at 10 µM [9, 18]?
The viability at 10 µM was 90.9%.

What about the viability at 10 µM [10, 19] of the same compound?
The viability at 10 µM was 98.5%.

And the viability at 10 µM ([11]; 72 h, Table 3, drug 10 μM)?
The viability at 10 µM was 92%.

What about the viability at 10 µM ([12]; 72 h, Table 3, drug 10 μM) of the same compound?
Its viability at 10 µM is 90.5%.

And the viability at 10 µM [13]?
The viability at 10 µM was 112%.

And the “Numbers of inhibitory effect” value (cancer cell lines)?
Its value is 0.

What about the “inhibition effect on different cancer cell lines (in words)” value (cancer cell lines) of the same compound?
The value was “significant inhibition effect”.

For `Cc1cccc(C)c1N=C1NCCCS1` [Xylazine HCl], which viability at 10 µM ([1]; A-375, Table 3, drug 10 μM, 72 hours) is on record?
Its viability at 10 µM is 63.5%.

And the viability at 10 µM ([3]; HepG2, Table 3, drug 10 μM, 72 hours)?
The viability at 10 µM was 83.5%.

What about the viability at 10 µM ([4]; Table 3, drug 10 μM, 72 hours) of the same compound?
The viability at 10 µM was 65.1%.

What about the viability at 10 µM ([5]; Table 3, drug 10 μM, 72 hours) of the same compound?
The viability at 10 µM was 86.3%.

What about the viability at 10 µM ([6]; NCI-H1650, Table 3, drug 10 μM, 72 hours) of the same compound?
The viability at 10 µM was 67.2%.

What about the viability at 10 µM ([7]; MKN-45, Table 3, drug 10 μM, 72 hours) of the same compound?
Its viability at 10 µM is 88.7%.

What about the viability at 10 µM ([8]; Table 3, drug 10 μM, 72 hours) of the same compound?
The viability at 10 µM was 61.5%.

What about the viability at 10 µM ([9]; A549, Table 3, drug 10 μM, 72 hours) of the same compound?
Its viability at 10 µM is 71.7%.

What about the viability at 10 µM ([10]; MCF7, Table 3, drug 10 μM, 72 hours) of the same compound?
Its viability at 10 µM is 104%.

And the viability at 10 µM ([11]; Table 3, drug 10 μM, 72 hours)?
Its viability at 10 µM is 105%.

What about the viability at 10 µM ([12]; Table 3, drug 10 μM, 72 hours) of the same compound?
Its viability at 10 µM is 96.6%.

What about the viability at 10 µM [13] of the same compound?
Its viability at 10 µM is 116%.

And the “Numbers of inhibitory effect” value (cancer cell lines)?
The value was 0.

And the “inhibition effect on different cancer cell lines (in words)” value (cancer cell lines)?
Its value is “significant inhibition effect”.
